# Results reported in patent publication US11723890B2, “Methods of treatment using an mTORC1 modulator” (Navitor Pharmaceuticals, Inc., priority 2019, dated 2023).
# Tests used:
# [1] = Nonclinical studies, observation of seizures; format: in vivo
# [2] = 14-day Q3D oral toxicology study in cynomolgus monkeys; conditions: cynomolgus monkey, in vivo; cynomolgus monkeys; 160, 500 or 2000 mg/kg PO Q3D for 14 days (5 doses); read-out: no-observed-adverse-effect level (NOAEL)
# Protocol: (§1) In cynomolgus monkeys administered 160, 500, or 2000 mg/kg PO Q3D for 14 days (5 doses total), the NOAEL was 160 mg/kg.
# (§2) Precautions related to cardiovascular safety in this clinical study included frequent measurement of vital signs (e.g., blood pressure, pulse, and body temperature) and frequent electrocardiograms (ECGs).
# cynomolgus monkey = experiment: as above; conditions: in vivo, po, 2000 mg/kg
# Protocol: as §1, §2
# rat = experiment: Single oral dose toxicology study in rat; format: in vivo
# Protocol: Nonclinical toxicology studies have been performed with compound A in the rat and cynomolgus monkey. Adverse effects were not observed after single oral doses of up to 500 mg/kg in rat and up to 2000 mg/kg in cynomolgus monkey.
# [3] = Example 2: single-dose pharmacokinetics in plasma and CSF; format: in vivo, human; conditions: healthy males, single oral 2400 mg
# Protocol: Pharmacokinetics Endpoints: The following PK parameters for compound A were determined in serum and CSF, as appropriate: • Cmax: Maximum compound A concentration determined directly from the concentration-time profile • Tmax: Time of maximum compound A concentration determined directly from the concentration-time profile • AUClast: Area under the concentration-time curve from pre-dose (time 0) to the time of the last quantifiable concentration (tlast) calculated using the linear-log trapezoidal rule • AUCinf: Area under the concentration-time curve from pre-dose (time 0) extrapolated to infinite time (AUClast+Clast/λz) calculated using the linear-log trapezoidal rule • AUC% extrap: Percentage of AUCinf that is due to extrapolation beyond tlast • λz: The terminal elimination rate constant determined by selection of at least 3 data points on the terminal phase of the concentration-time curve. • t1/2: Terminal elimination half-life calculated as: ln 2/λz • CL/F: Apparent body clearance calculated as: Dose/AUCinf • Vz/F: Apparent volume of distribution calculated as: Dose/(AUCinf*λz) • MRT: Mean residence time (of the unchanged drug in the systemic circulation) as: AUMC/AUC • RA (AUC): Accumulation CSF/plasma ratio calculated as the ratios of the AUCinf,ss at steady state and AUCτ,sd after single dosing calculated as: AUCτ,ss/AUCτ,sd • RA (Cmax): Accumulation CSF/plasma ratio calculated as ratio of Cmax,ss at steady state and Cmax,sd after single dosing calculated as: Cmax,ss/Cmax,sd • CSF compound A concentrations over time and the ratio compared with time-matched plasma concentrations were also evaluated Overall Study Design: […]
# Pharmacokinetic, Metabolomic, and Proteomic Variables: Blood and CSF samples for the PK, metabolomics, and proteomic analysis of compound A were collected at various time points and were processed and analyzed by a validated method for determining concentrations of compound A.
# subjects with TRD = experiment: Example 1 Part B: safety and tolerability of a single dose in subjects with TRD; conditions: single oral 2400 mg
# Text: In Part B of the study, approximately 32 subjects were randomly assigned to double-blind treatment in one cohort. […] The single-blind placebo lead-in treatment was intended to facilitate screening out placebo responders.
# The study included standard safety and tolerability assessments—e.g., physical, neurological, and psychiatric examinations, vital signs, oral temperature, respiration rate, weight, 12-lead paper electrocardiograms (pECGs), dECGs, clinical laboratory tests, monitoring of adverse events (AEs) and concomitant medications, and, in Part A of the study, cardiovascular (CV) telemetry and safety EEGs.
# Placebo was administered orally as a solution.
compound,measurement,setting,value
"CC(C)(C[C@H](N)C(=O)O)C(F)F [Compound A, (S)-2-amino-5,5-difluoro-4,4-dimethylpentanoic acid]",seizures,[1],seizures have not been observed
same,NOAEL at 14 days,[2],160 mg/kg
same,adverse effects at 2000 mg/kg,cynomolgus monkey,"dehydration in one animal, likely secondary to vomiting, and increased aspartate aminotransferase (AST) in one animal"
same,finding after single oral dose,"rat; in vivo, po, 2000 mg/kg",ataxia was noted
same,time by which ataxia resolved,"rat; in vivo, po, 2000 mg/kg",≤ 24 h
same,single oral dose up to which adverse effects were not observed,rat; single oral dose,up to 500 mg/kg
same,uptake into circulation and brain exposure,[3],rapid uptake of compound A into circulation with rapid brain exposure
same,human CSF levels,[3]; FIG. 8,consistent with rodent levels at the effective dose
same,half-life,"[3]; male, human, in vivo",10 to 13 h
same,"Vitals, labs, and ECG findings",subjects with TRD,unremarkable
same,safety and tolerability,subjects with TRD,"well tolerated, with no serious adverse events, and no discontinuations due to adverse events"
same,severity of adverse events,subjects with TRD,mild-moderate
same,Deaths,subjects with TRD; n = 16,0
same,Discontinuations due to AE,subjects with TRD; n = 16,0
same,Serious AEs,subjects with TRD; n = 16,0
same,Subjects with at least 1 AE,subjects with TRD; n = 16,11 (68.8)
same,TEAE: Back pain,subjects with TRD; n = 16,1
same,TEAE: Dizziness,subjects with TRD; n = 16,2
same,TEAE: Dizziness postural,subjects with TRD; n = 16,1
same,TEAE: Dry mouth,subjects with TRD; n = 16,1
same,TEAE: Dyspepsia,subjects with TRD; n = 16,1
same,TEAE: Feeling abnormal,subjects with TRD; n = 16,1
same,TEAE: Flatulence,subjects with TRD; n = 16,1
same,TEAE: Frequent bowel movements,subjects with TRD; n = 16,1
same,TEAE: Headache,subjects with TRD; n = 16,2
same,TEAE: Hypertension,subjects with TRD; n = 16,1
same,TEAE: Hyperthyroidism,subjects with TRD; n = 16,1
same,TEAE: Myalgia,subjects with TRD; n = 16,1
same,TEAE: Nausea,subjects with TRD; n = 16,1
same,TEAE: Nipple pain,subjects with TRD; n = 16,1
same,TEAE: Orthostatic hypotension,subjects with TRD; n = 16,1
same,TEAE: Sensory disturbance,subjects with TRD; n = 16,1
same,TEAE: Skin abrasion,subjects with TRD; n = 16,1
same,TEAE: Somnolence,subjects with TRD; n = 16,4
same,TEAE: T-wave inversion,subjects with TRD; n = 16,1
same,Total number of TEAEs,subjects with TRD; n = 16,24
same,BPRS+ and CADSS scores,subjects with TRD; vs placebo,comparable as between the treatment groups
